We go through one sequence from patent publication US11484575B2, “Compositions and methods comprising bone morphogenetic protein and NEMO binding peptide” (Cedars-Sinai Medical Center, priority 2018, dated 2022).

The conditions of data set [1]: phase I clinical trial in dogs; cited from earlier work.
The next data set relates to NFκB. Particulars: without affecting the basal activity of IKK; cited from earlier work.
In data set [2] the test system is carrageenan-induced edema. Particulars: cited from earlier work.
The subject of another data set is rat spine fusion model. In words: Manual palpation fusion, rat posterolateral spine fusion model. The format is in vivo, Sprague Dawley rats. As to conditions: freshly harvested spine explants, 12 weeks. The method, then: Sixteen male adult (220 to 260 g) Sprague Dawley rats were utilized to compare BMP-2 mediated spine fusion in presence and absence of NBD. […] Therefore, this concentration of BMP-2 was employed. In detail, eight rats underwent single-level posterolateral fusion in the lumber spine using BMP-2 (total dose of 30 μg/side/rat) and NBD ([…]) loaded ACS and eight rats served as positive controls (30 μg/side/rat BMP-2-loaded ACS, no NBD). Rat spines were allowed to heal and consolidate for 12 weeks. Radiographical fusion was determined via high-resolution radiographs obtained at monthly intervals postoperatively. After 12 weeks, ex vivo micro-computed tomography was performed on explanted spines to determine the structural properties of the fusion mass. For functional assessment of spinal fusion, manual palpation was performed. Finally, histological evaluation of spine fusion was performed in terms of Masson-trichrome staining (Table 1). The posterolateral intertransverse process fusion surgical procedure is described briefly. […] The condition of the rats was monitored daily. […] Fusion was determined via manual palpation of segments by two independent observers. Any motion that was detected between the L4 and L5 segment, including the transverse process or vertebral bodies, was considered to indicate a fusion failure. […]

The subject of data set [3] is inflammatory bone destruction. Particulars: cited from earlier work.

Regarding “TALDWSWLQTE (listed as Homo sapiens) [NBD]”, the toxicity result in data set [1] was “low toxicity”. Besides, the “pro-inflammatory cytokine-induced NFκB activation” value with NFκB was “block”. Besides, the “paw edema in mice” value in data set [2] (100 μg and 500 μg NBD) is reported as “ameliorate”. Moreover, the “carrageenan-induced edema formation and cellular inflammation in mouse paws” value in data set [2] (mouse, in vivo) is “significantly inhibit”. Also, the “fusion by manual palpation” value with rat spine fusion model stood at 100%. In addition, the “inflammatory bone destruction in vivo” value in data set [3] (continuous administration) was “prevent”. For the same sequence, the signs of toxicity result in data set [3] (in vivo) was “without showing signs of toxicity”.
